The subject of experiment [1] is SNB19 (brain cancer). Nature of the experiment: MTT tumor cell growth assay. It counts as cell-based. The note with it: SNB19 cells, lansoprazole 1-100 μM, 48 hours. The protocol: (§1) In one study, adherent cells were plated approximately 16-24 hours before the day of the experiment in 180 μl growth media. On the day of the experiment, the plated adherent cells were analyzed and counted and suspension cells were plated in 180 μl growth media. 10× lansoprazole compounds and vehicle was prepared. The 10× lansoprazole compounds were prepared by diluting lansoprazole to final concentrations of 100 μM, 30 μM, 10 μM, 3 μM, and 1 μM. A vehicle was prepared by preparing a solution of PBS, equivalent to the volume used for 10 μM lansoprazole wherein the 1× solution constitutes ˜0.06% PBS. 10 μl of the various 10× lansoprazole solutions and the vehicle were added to the cells. The cells were incubated at 37° C., 5% CO2 for 48 hours. The media was then aspirated. The cell suspension was then spun at 1500 RPM for 10 minutes. The media was slowly removed. 200 μl of MTT solution was added to each well with a concentration of 0.863 mg/ml MTT in the growth media. The cells were incubated at 37° C., 5% CO2 for 4 hours and the medium is then aspirated. The plate containing the cell suspension was then spun at 1500 RPM for 10 minutes. The media was slowly removed using a multichannel pipettor. 100 μl of DMSO was then added to each well. The cells were incubated at 37° C., 5% CO2 for 5 minutes and the absorbance was obtained at 560 nm using a Dynex Opsys MR plate reader.

The subject of experiment [2] is SF-539 (brain cancer). Nature of the experiment: MTT tumor cell growth assay. The class given is cell-based. The following applies: SF-539 cells, lansoprazole 1-100 μM, 48 hours. How it is done:
as §1

Experiment [3] concerns SF295 (brain cancer). The experiment can be described thus: MTT tumor cell growth assay. The class given is cell-based. The following applies: SF295 cells, lansoprazole 1-100 μM, 48 hours. The protocol: as §1
Experiment [4] deals with U251 (brain cancer). The experiment can be described thus: MTT tumor cell growth assay. It counts as cell-based. The note with it: U251 cells, lansoprazole 1-100 μM, 48 hours. The protocol: as §1
The test system of experiment [5] is JR, HepG2, SR Liquid Leukemia, RS1184 B Lymphoma, and G401 rhabdoid tumor cell lines. Nature of the experiment: Xenograft nude mouse model, all tumor lines. The class given is in vivo. The note with it: subcutaneous xenografts. The protocol: (§2) JR (rhabdomyosarcoma), HepG2 (liver carcinoma), SR Liquid Leukemia (leukemia), RSI 184 B Lymphoma (lymphoma), and G401 rhabdoid (kidney) cancer cells for use in a xenograft mouse model were collected from JR, HepG2, SR Liquid Leukemia, RS1184 B Lymphoma, and G401 rhabdoid tumor cell lines and injected at 5×10^6 cells per nude mouse in a volume of 100 μl subcutaneously. The animals were examined three times weekly to determine the progression of the tumors and determine body weight. Dosing started when tumors reached the ˜75-150 mm^3 size. Animals were randomized and distributed in groups in such a way that mean tumor weights in all groups were within 15% of the mean tumor weight in Group 1 (Control—vehicle group). Upon reaching the ˜75-150 mm^3 target size an effective amount of lansoprazole was administered to the mice in a suspension of PEG300 at a concentration of 100 mg/kg.

Experiment [6] has as its system SR Liquid Leukemia (leukemia). The experiment can be described thus: Xenograft nude mouse model, SR Liquid Leukemia. The class given is in vivo. The note with it: nude mice, 100 mg/kg in PEG300. How it is done:
as §2

Experiment [7] deals with G401 rhabdoid (kidney) cancer cells. Nature of the experiment: Xenograft nude mouse model, G401. It counts as in vivo. The note with it: nude mice, 100 mg/kg in PEG300. How it is done:
as §2

Experiment [8] concerns HepG2 (liver carcinoma). The experiment can be described thus: Xenograft nude mouse model, HepG2. The class given is in vivo. The note with it: nude mice, 100 mg/kg in PEG300. The protocol: as §2

In the case of `Cc1c(OCC(F)(F)F)ccnc1C[S+]([O-])c1nc2ccccc2[nH]1` (stereo not drawn) [lansoprazole], the “tumor cell growth reduction” value in experiment [1], in experiment [2], in experiment [3] and in experiment [4] was “significant tumor cell growth reduction” each time. In addition, in experiment [5] (nude mice, 100 mg/kg in PEG300), the “life span of the population” value is on record as “extended life span”. The “tumor growth in mice” value in experiment [5] (100 mg/kg in PEG300, FIGS. 4A-4C and 5A-5C) is reported as “effectively reduced tumor growth”. Further, the “treating tumor cells derived from tumor cell line” value in experiment [6], in experiment [7] and in experiment [8] was “especially effective” in each case.
